Data reported in publication PMC11237012, “Synthesis and preliminary evaluation of novel PET probes for GSK-3 imaging” (Scientific Reports, 2024).

Experiment: In vivo PET imaging, uptake in brain and liver
Design: species or system wild-type FVB/NJ mice
Procedure: To evaluate the imaging potential and brain uptake of PET probe [^18F]2, we selected FVB/NJ wild-type mice and performed radiotracer uptake studies via tail vein injection of [^18F]2 followed by dynamic imaging upto 60 min and static imaging at 120 min post-injection. Ex-vivo biodistribution was performed immediately after 120 min static imaging. Uptake of [^18F]2 was assessed in the brain and liver of wild-type FVB/NJ mice by PET imaging at different time points post-injection with and without co-administration of 2 (reference compound as a self-blocking agent). Representative transverse sectional PET images of the brain at different time points are shown in Fig. 6 and representative coronal and sagittal sectional PET images of the liver and whole-body PET images are shown in SI-Figs. S17 and S18, respectively. It was encouraging to observe brain uptake of PET probe [^18F]2 with a standard uptake value (SUV) of 0.92 ± 0.28 (n = 6) at 5 min post-injection. Approximately 80% of PET probe [^18F]2 was cleared from the wild-type mice brain in the first 30 min. The uptake of [^18F]2 in the brain was lower than in the liver at all time points post-injection. […] The contrasting response in uptake of [^18F]2 in the brain in the presence of 2 could be attributed to the peripheral effect. […] This is also evident from the higher concentration of 2 in the blood of the animals in which [^18F]2 was co-administered with 2 as compared to administration of only [^18F]2 (Figs. 6, 7 and 8 and SI-Table S2, SI-Figs. S17, S18). A similar observation was also reported by Lindberg et al. 2021 with [^11C]verubulin in rats, where co-injection of verubulin increased the uptake of [^11C]verubulin in the brain and was attributed to the saturation of the enzymes (e.g. cytochrome P450 enzymes) that metabolize the tracer in the liver, leading to increased bioavailability. It is also plausible that the isonicotinamide class of compounds are substrate for cytochrome P450 enzymes.
Uptake of PET probe [^18F]2 (1.40 ± 0.61 MBq) was assessed with and without co-administration of 2 in 10–13-week-old wild-type FVB/NJ mice (The Jackson Laboratory, Bar Harbor, ME) after tail vein injection followed by PET imaging at 5 min, 10 min, 15 min, 20 min, 25 min, 30 min, 40 min, 50 min, 60 min and 120 min post injection. Additionally, ex vivo biodistribution was performed at 5 min, 10 min and 120 min post tail vein injection. To prepare [^18F]2 formulation for injection, 0.76 ± 0.48 µg (2.01 ± 1.27 nmol) of [^18F]2 was formulated in 10% ethanol/ 90% isotonic saline. For the blocking experiment, 20.21 ± 1.63 µg (53.75 ± 4.33 nmol) of 2 in DMSO was added to [^18F]2 (Am of 87.27 ± 77.26 (n = 13) GBq/µmole, having 0.46 ± 0.31 µg or 1.23 ± 0.83 nmol of nonradioactive 2 in it) in the final formulation volume of ~ 100 µL. This study had 12 wild type FVB/NJ male mice with body weight 31.8 ± 2.7 g and 10 wild type FVB/NJ female mice with body weight 27.0 ± 3.6 g at the time of imaging. All the animals were anesthetized for tail vein injection and PET imaging using an induction dose of 3% isoflurane and a maintenance dose of 2–3% isoflurane, which was administered via isoflurane vaporizer. All anesthetized animals were kept warm during imaging using a heat supported imaging chamber. For ex vivo biodistribution studies, animals were sacrificed at 5 min, 10 min and 120 min post-injection by cervical dislocation and tissues were harvested for gamma counting. For PET imaging studies, each animal underwent a 60 min dynamic PET scan (Framing Sequence: 1 × 10 s, 4 × 15 s, 8 × 30 s, 5 × 60 s, 4 × 300 s, 3 × 600 s) immediately post injection followed by 10 min static PET scan at 120 min post-injection on small animal micro-PET/X-ray system, Genesys 4 (Sofie BioSystems, Dulles, VA, USA). The PET images were reconstructed using Genesys 4 imaging software installed on the imaging system. […]

Uptake (SUV) by PET image analysis (brain, 5 min post-injection, [^18F]2 + 20 µg of 2): 0.93 ± 0.06
Uptake (SUV) by PET image analysis (brain, 5 min post-injection, [^18F]2 alone): 0.92 ± 0.28
Change of brain uptake on co-administration of compound 2 (brain, 5 min time point): no difference in uptake
Uptake (SUV) by PET image analysis (brain, 10 min post-injection, [^18F]2 + 20 µg of 2): 0.57 ± 1.06
Uptake (SUV) by PET image analysis (brain, 10 min post-injection, [^18F]2 alone): 0.38 ± 0.06
Change of brain uptake on co-administration of compound 2 (brain, 10 min time point): 1.5 fold
Change of brain uptake on co-administration of compound 2 (brain, 15 min, 20 min, 25 min and 30 min time points): twofold
Uptake (SUV) by PET image analysis (brain, 15 min post-injection, [^18F]2 + 20 µg of 2): 0.50 ± 0.06
Uptake (SUV) by PET image analysis (brain, 15 min post-injection, [^18F]2 alone): 0.24 ± 0.03
Uptake (SUV) by PET image analysis (brain, 20 min post-injection, [^18F]2 + 20 µg of 2): 0.43 ± 0.06
Uptake (SUV) by PET image analysis (brain, 20 min post-injection, [^18F]2 alone): 0.21 ± 0.02
Uptake (SUV) by PET image analysis (brain, 25 min post-injection, [^18F]2 + 20 µg of 2): 0.40 ± 0.06
Uptake (SUV) by PET image analysis (brain, 25 min post-injection, [^18F]2 alone): 0.19 ± 0.03
Uptake (SUV) by PET image analysis (brain, 30 min post-injection, [^18F]2 + 20 µg of 2): 0.36 ± 0.06
Uptake (SUV) by PET image analysis (brain, 30 min post-injection, [^18F]2 alone): 0.19 ± 0.04
Uptake (SUV) by PET image analysis (brain, 40 min post-injection, [^18F]2 + 20 µg of 2): 0.31 ± 0.06
Uptake (SUV) by PET image analysis (brain, 40 min post-injection, [^18F]2 alone): 0.18 ± 0.04
Uptake (SUV) by PET image analysis (brain, 50 min post-injection, [^18F]2 + 20 µg of 2): 0.28 ± 0.06
Uptake (SUV) by PET image analysis (brain, 50 min post-injection, [^18F]2 alone): 0.17 ± 0.03
Uptake (SUV) by PET image analysis (brain, 60 min post-injection, [^18F]2 + 20 µg of 2): 0.26 ± 0.06
Uptake (SUV) by PET image analysis (brain, 60 min post-injection, [^18F]2 alone): 0.16 ± 0.03
Uptake (SUV) by PET image analysis (brain, 120 min post-injection, [^18F]2 + 20 µg of 2): 0.18 ± 0.01
Uptake (SUV) by PET image analysis (brain, 120 min post-injection, [^18F]2 alone): 0.09 ± 0.01
Uptake (SUV) by PET image analysis (liver, 5 min post-injection, [^18F]2 + 20 µg of 2): 5.24 ± 1.46
Uptake (SUV) by PET image analysis (liver, 5 min post-injection, [^18F]2 alone): 5.66 ± 1.18
Uptake (SUV) by PET image analysis (liver, 10 min post-injection, [^18F]2 + 20 µg of 2): 5.86 ± 0.51
Uptake (SUV) by PET image analysis (liver, 10 min post-injection, [^18F]2 alone): 7.43 ± 0.66
Uptake (SUV) by PET image analysis (liver, 15 min post-injection, [^18F]2 + 20 µg of 2): 5.49 ± 0.28
Uptake (SUV) by PET image analysis (liver, 15 min post-injection, [^18F]2 alone): 7.89 ± 0.59
Uptake (SUV) by PET image analysis (liver, 20 min post-injection, [^18F]2 + 20 µg of 2): 5.19 ± 0.27
Uptake (SUV) by PET image analysis (liver, 20 min post-injection, [^18F]2 alone): 7.88 ± 0.60
Uptake (SUV) by PET image analysis (liver, 25 min post-injection, [^18F]2 + 20 µg of 2): 4.93 ± 0.30
Uptake (SUV) by PET image analysis (liver, 25 min post-injection, [^18F]2 alone): 7.61 ± 0.65
Uptake (SUV) by PET image analysis (liver, 30 min post-injection, [^18F]2 + 20 µg of 2): 4.76 ± 0.33
Uptake (SUV) by PET image analysis (liver, 30 min post-injection, [^18F]2 alone): 7.34 ± 0.77
Uptake (SUV) by PET image analysis (liver, 40 min post-injection, [^18F]2 + 20 µg of 2): 4.55 ± 0.23
Uptake (SUV) by PET image analysis (liver, 40 min post-injection, [^18F]2 alone): 6.91 ± 0.91
Uptake (SUV) by PET image analysis (liver, 50 min post-injection, [^18F]2 + 20 µg of 2): 4.31 ± 1.15
Uptake (SUV) by PET image analysis (liver, 50 min post-injection, [^18F]2 alone): 6.40 ± 1.04
Uptake (SUV) by PET image analysis (liver, 60 min post-injection, [^18F]2 + 20 µg of 2): 4.09 ± 1.16
Uptake (SUV) by PET image analysis (liver, 60 min post-injection, [^18F]2 alone): 5.95 ± 1.12
Uptake (SUV) by PET image analysis (liver, 120 min post-injection, [^18F]2 + 20 µg of 2): 3.19 ± 0.37
Uptake (SUV) by PET image analysis (liver, 120 min post-injection, [^18F]2 alone): 2.78 ± 1.40
Fraction of probe cleared from the brain (wild-type mice brain, in the first 30 min): Approximately 80%
Structure (SMILES): O=C(Nc1cnccc1-c1ccc([18F])cc1)c1ccnc(NC(=O)C2CC2)c1 [[^18F]2]
